For the test, the target named is Human recombinant LSD1 protein (Homo sapiens (Human), UniProt O60341). Description: LSD1 enzymatic activity, AlphaLISA demethylation assay. The class given is biochemical. The following applies: 4 nM LSD1, 80 nM Biotin-H3K4Me peptide substrate, 1% DMSO, 60 minutes reaction. How it is done:
Human recombinant LSD1 protein expressed in E. coli cells was purchased from Active Motif (Carlsbad, Calif.). Biotin-labeled Histone H3K4Me peptide (residues 1-21 with Lys 4 monomethylated) substrate was purchased from Anaspec (Fremont, Calif.). Enzymatic activity was assessed using the AlphaLISA technology from Perkin Elmer Life Sciences (Waltham, Mass.). 2.5 μL of compound solution and 5 μL of LSD1 solutions in the assay buffer (50 mM Tris, pH 9.0, 50 mM NaCl with 0.01% Tween20 and 1 mM DTT added right before the assay) were added into a white low volume 384 well microtiter plate. This mixture solution was incubated for 15 minutes with gentle shaking at room temperature. Demethylation reaction was initiated by adding 2.5 μL of Biotin-H3K4Me peptide substrate solution in the assay buffer. Final concentrations of LSD1, Biotin-H3K4Me peptide substrate, and DMSO were 4 nM, 80 nM, and 1%, respectively. The reaction was allowed to proceed for 60 minutes in dark with gentle shaking at room temperature, after which 5 μL of Anti-H3K4 AlphaLISA acceptor beads in detection buffer from the manufacturer was added into the reaction mixture followed by incubation for 60 minutes. 10 μL of Streptavidin labeled AlphaLISA donor beads in detection buffer was added into the mixture followed by 30-minute incubation. Final acceptor and donor beads concentrations were both at 10 μg/mL. Plates were read on a BMG CLARIOStar multimode plate reader from BMG Labtech (Ortenberg, Germany) with an excitation wavelength of 680 nm and emission wavelength of 615 nm. IC50 values of inhibitors were obtained by fitting the fluorescence intensity vs inhibitor concentrations in a sigmoidal dose-response curve (variable slope) with a non-linear regression using Prism 7 (La Jolla, Calif.).

In the case of `CN1CCC(Cn2cnc3c(-c4ccc(C#N)c(F)c4)c(-c4ccc5c(cnn5C)c4)ncc32)CC1` [Cpd. No. 1, 2-fluoro-4-(6-(1-methyl-1H-indazol-5-yl)-3-((1-methylpiperidin-4-yl)methyl)-3H-imidazo[4,5-c]pyridin-7-yl)benzonitrile], the half-inhibitory concentration (IC50) came to 40.1 nM.
Regarding `Cn1ncc2cc(-c3ncc4c(ncn4CC4CCNCC4)c3-c3ccc(C#N)c(F)c3)ccc21` [Cpd. No. 19, 2-fluoro-4-(6-(1-methyl-1H-indazol-5-yl)-3-(piperidin-4-ylmethyl)-3H-imidazo[4,5-c]pyridin-7-yl)benzonitrile], the IC50 came to 11.8 nM.
With `CN1CCC(Cn2cnc3c(-c4ccc(C#N)c(F)c4)c(-c4ccc5c(ccn5C)c4)ncc32)CC1` [compound 2, 2-fluoro-4-(6-(1-methyl-1H-indol-5-yl)-3-((1-methylpiperidin-4-yl)methyl)-3H-imidazo[4,5-c]pyridin-7-yl)benzonitrile], the half-inhibitory concentration (IC50) amounted to 237 nM.
Take `CN1CCC(Cn2cnc3c(-c4ccc(C#N)c(F)c4)c(-c4ccc5c(c4)CC(=O)N5C)ncc32)CC1` [compound 3, 2-fluoro-4-(6-(1-methyl-2-oxoindolin-5-yl)-3-((1-methylpiperidin-4-yl)methyl)-3H-imidazo[4,5-c]pyridin-7-yl)benzonitrile]: the IC50 was found to be 220 nM.
For the compound `CCn1ncc2cc(-c3ncc4c(ncn4CC4CCN(C)CC4)c3-c3ccc(C#N)c(F)c3)ccc21` [compound 4, 4-(6-(1-ethyl-1H-indazol-5-yl)-3-((1-methylpiperidin-4-yl)methyl)-3H-imidazo[4,5-c]pyridin-7-yl)-2-fluorobenzonitrile], the IC50 amounted to 372 nM.
Regarding `Cc1nc2cc(-c3ncc4c(ncn4CC4CCN(C)CC4)c3-c3ccc(C#N)c(F)c3)ccc2s1` [compound 5, 2-fluoro-4-(6-(2-methylbenzo[d]thiazol-5-yl)-3-((1-methylpiperidin-4-yl)methyl)-3H-imidazo[4,5-c]pyridin-7-yl)benzonitrile], the half-maximal inhibitory concentration (IC50) was 928 nM.
For the compound `CN1CCC(Cn2cnc3c(-c4ccc(C#N)cc4)c(-c4ccc5c(cnn5C)c4)ncc32)CC1` [compound 6, 4-(6-(1-methyl-1H-indazol-5-yl)-3-((1-methylpiperidin-4-yl)methyl)-3H-imidazo[4,5-c]pyridin-7-yl)benzonitrile], the IC50 turned out to be 66.3 nM.
The value for `CN1CCC(Cn2cnc3c(-c4ccc(C#N)cc4)c(-c4ccc5c(ccn5C)c4)ncc32)CC1` [compound 7, 4-(6-(1-methyl-1H-indol-5-yl)-3-((1-methylpiperidin-4-yl)methyl)-3H-imidazo[4,5-c]pyridin-7-yl)benzonitrile] was 68 nM; that for `CN1CCC(Cn2cnc3c(-c4ccc(C#N)c(F)c4)c(-c4ccc5c(c4)OCCN5C)ncc32)CC1` [compound 8, 2-fluoro-4-(6-(4-methyl-3,4-dihydro-2H-benzo[b][1,4]oxazin-7-yl)-3-((1-methylpiperidin-4-yl)methyl)-3H-imidazo[4,5-c]pyridin-7-yl)benzonitrile] was 16.2 nM.
As for `CN1CCC(Cn2cnc3c(-c4ccc(C#N)cc4)c(-c4ccc(C#N)cc4)ncc32)CC1` [compound 9, 4,4′-(3-((1-methylpiperidin-4-yl)methyl)-3H-imidazo[4,5-c]pyridine-6,7-diyl)dibenzonitrile], the IC50 was > 1000 nM.
For the compound `CN1CCC(Cn2cnc3c(-c4ccc(C#N)cc4)c(-c4ccc5c(c4)OCCN5C)ncc32)CC1` [compound 10, 4-(6-(4-methyl-3,4-dihydro-2H-benzo[b][1,4]oxazin-7-yl)-3-((1-methylpiperidin-4-yl)methyl)-3H-imidazo[4,5-c]pyridin-7-yl)benzonitrile], the IC50 was determined as 53.1 nM.
The value for `CCn1ncc2cc(-c3ncc4c(ncn4CC4CCN(C)CC4)c3-c3ccc(C#N)cc3)ccc21` [compound 11, 4-(6-(1-ethyl-1H-indazol-5-yl)-3-((1-methylpiperidin-4-yl)methyl)-3H-imidazo[4,5-c]pyridin-7-yl)benzonitrile] was 116 nM; that for `CN1CCC(Cn2cnc3c(-c4ccc(C#N)c(F)c4)c(-c4ccc5nn(C)cc5c4)ncc32)CC1` [compound 12, 2-fluoro-4-(6-(2-methyl-2H-indazol-5-yl)-3-((1-methylpiperidin-4-yl)methyl)-3H-imidazo[4,5-c]pyridin-7-yl)benzonitrile] was 97.6 nM.
For `CN1CCC(Cn2cnc3c(-c4ccc(C#N)cc4)c(-c4ccc5nn(C)cc5c4)ncc32)CC1` [compound 13, 4-(6-(2-methyl-2H-indazol-5-yl)-3-((1-methylpiperidin-4-yl)methyl)-3H-imidazo[4,5-c]pyridin-7-yl)benzonitrile], the IC50 amounted to 115 nM.
In the case of `CN1CCC(Cn2cnc3c(-c4ccc(C#N)cc4)c(-c4ccc5c(c4)OCO5)ncc32)CC1` [compound 14, 4-(6-(benzo[d][1,3]dioxol-5-yl)-3-((1-methylpiperidin-4-yl)methyl)-3H-imidazo[4,5-c]pyridin-7-yl)benzonitrile], the half-inhibitory concentration (IC50) is 15.7 nM.
As to `CN1CCC(Cn2cnc3c(-c4ccc(C#N)c(F)c4)c(-c4ccc5c(c4)OCO5)ncc32)CC1` [compound 15, 4-(6-(benzo[d][1,3]dioxol-5-yl)-3-((1-methylpiperidin-4-yl)methyl)-3H-imidazo[4,5-c]pyridin-7-yl)-2-fluorobenzonitrile], the concentration for half-maximal inhibition (IC50) is 27.8 nM.
For `CN1CC[C@H](Cn2cnc3c(-c4ccc(C#N)c(F)c4)c(-c4ccc5c(cnn5C)c4)ncc32)C1` [compound 16, (S)-2-fluoro-4-(6-(1-methyl-1H-indazol-5-yl)-3-((1-methylpyrrolidin-3-yl)methyl)-3H-imidazo[4,5-c]pyridin-7-yl)benzonitrile], the IC50 came out at 28 nM.
For `CN1CCOc2cc(-c3ncc4c(ncn4C[C@H]4CCNC4)c3-c3ccc(C#N)c(F)c3)ccc21` [compound 17, (S)-2-fluoro-4-(6-(4-methyl-3,4-dihydro-2H-benzo[b][1,4]oxazin-7-yl)-3-(pyrrolidin-3-ylmethyl)-3H-imidazo[4,5-c]pyridin-7-yl)benzonitrile], the 50% inhibitory concentration (IC50) was 12.1 nM.
`CN1CC[C@H](Cn2cnc3c(-c4ccc(C#N)c(F)c4)c(-c4ccc5c(c4)OCCN5C)ncc32)C1` [compound 18, (S)-2-fluoro-4-(6-(4-methyl-3,4-dihydro-2H-benzo[b][1,4]oxazin-7-yl)-3-((1-methylpyrrolidin-3-yl)methyl)-3H-imidazo[4,5-c]pyridin-7-yl)benzonitrile]: the IC50 was determined as 12 nM.
Consider `Cn1ncc2cc(-c3ncc4c(ncn4CC4CCNCC4)c3-c3ccc(C#N)cc3)ccc21` [compound 20, 4-(6-(1-methyl-1H-indazol-5-yl)-3-(piperidin-4-ylmethyl)-3H-imidazo[4,5-c]pyridin-7-yl)benzonitrile], for which the IC50 amounted to 13.7 nM.
`Cn1ncc2cc(-c3ncc4c(ncn4CC4CCCNCC4)c3-c3ccc(C#N)c(F)c3)ccc21` (stereo not drawn) [compound 21, 4-(3-(azepan-4-ylmethyl)-6-(1-methyl-1H-indazol-5-yl)-3H-imidazo[4,5-c]pyridin-7-yl)-2-fluorobenzonitrile]: the concentration for half-maximal inhibition (IC50) came out at 17.3 nM.
As to `Cn1ncc2cc(-c3ncc4c(ncn4CC4CCCNCC4)c3-c3ccc(C#N)cc3)ccc21` (stereo not drawn) [compound 22, 4-(3-(azepan-4-ylmethyl)-6-(1-methyl-1H-indazol-5-yl)-3H-imidazo[4,5-c]pyridin-7-yl)benzonitrile], the IC50 was 16.2 nM.
As for `CN1CCOc2cc(-c3ncc4c(ncn4CC4CCCNCC4)c3-c3ccc(C#N)c(F)c3)ccc21` (stereo not drawn) [compound 23, 4-(3-(azepan-4-ylmethyl)-6-(4-methyl-3,4-dihydro-2H-benzo[b][1,4]oxazin-7-yl)-3H-imidazo[4,5-c]pyridin-7-yl)-2-fluorobenzonitrile], the IC50 amounted to 13 nM.
Under `CN1CCOc2cc(-c3ncc4c(ncn4CC4CCCNCC4)c3-c3ccc(C#N)cc3)ccc21` (stereo not drawn) [compound 24, 4-(3-(azepan-4-ylmethyl)-6-(4-methyl-3,4-dihydro-2H-benzo[b][1,4]oxazin-7-yl)-3H-imidazo[4,5-c]pyridin-7-yl)benzonitrile] stands 11 nM; under `CN1CCOc2cc(-c3ncc4c(ncn4CC4CCNCC4)c3-c3ccc(C#N)c(F)c3)ccc21` [compound 25, 2-fluoro-4-(6-(4-methyl-3,4-dihydro-2H-benzo[b][1,4]oxazin-7-yl)-3-(piperidin-4-ylmethyl)-3H-imidazo[4,5-c]pyridin-7-yl)benzonitrile], 8.01 nM.
`CN1CCOc2cc(-c3ncc4c(ncn4CC4CCNCC4)c3-c3ccc(C#N)cc3)ccc21` [compound 26, 4-(6-(4-methyl-3,4-dihydro-2H-benzo[b][1,4]oxazin-7-yl)-3-(piperidin-4-ylmethyl)-3H-imidazo[4,5-c]pyridin-7-yl)benzonitrile]: the IC50 worked out at 14.7 nM.
As for `Cn1ccc2cc(-c3ncc4c(ncn4C[C@H]4CCNC4)c3-c3ccc(C#N)c(F)c3)cnc21` [compound 27, (S)-2-fluoro-4-(6-(1-methyl-1H-pyrrolo[2,3-b]pyridin-5-yl)-3-(pyrrolidin-3-ylmethyl)-3H-imidazo[4,5-c]pyridin-7-yl)benzonitrile], the concentration for half-maximal inhibition (IC50) is 53.3 nM.

These data come from patent US11944614B2, “Imidazo[4,5-c]pyridine compounds as LSD-1 inhibitors” (THE REGENTS OF THE UNIVERSITY OF MICHIGAN, priority 2018, dated 2024).
